Measurements from ChEMBL document CHEMBL6071177, “Medium-Ring Keto Bislactams with Antischistosomal Activity” (J Med Chem, 2024).
≈ marks a conversion by molar mass, not a printed value.

Tests used:
Schistosoma mansoni [1] = assay: Anti-schistosomal activity against adult Schistosoma mansoni assessed as parasite viability at 10 uM measured after 3 days relative to control; format: functional; settings: time 3 day
[2] = Solubility of compound in 0.01 M HCl at pH 2.0 by nephelometry; format: physicochemical
Schistosoma mansoni [3] = assay: Anti-schistosomal activity against newly transformed Schistosoma mansoni assessed as parasite viability at 10 uM measured after 3 days relative to control; format: functional; settings: time 3 day
[4] = Cytotoxicity against rat L6 cells; format: toxicity, cell-based
[5] = Solubility of compound in phosphate buffer at pH 6.5 by nephelometry; format: physicochemical
[6] = Lipophilicity, logD of compound at pH 7.4 by HPLC analysis; format: physicochemical; settings: buffer
[7] = Intrinsic clearance in mouse liver microsomes
[8] = Intrinsic clearance in human liver microsomes

Row | Structure (SMILES) | Activity (Schistosoma mansoni [1]) | solubility kinetic [2] | Activity (Schistosoma mansoni [3]) | IC50 [4] | solubility kinetic [5] | logD [6] | CLH [7] | CLH [8]
1 | O=C1CCN2C(=O)c3ccccc3C2C(=O)Nc2cc(F)ccc21 (configuration not stated) | 39% | 160 µM (≈ 51.9 µg/mL) | 15% | > 300 µM | 160 µM (≈ 51.9 µg/mL) | 1.4 |  | 
2 | CC12C(=O)Nc3ccccc3C(=O)CCN1C(=O)c1ccccc12 (configuration not stated) | 35% | 160 µM (≈ 51.3 µg/mL) | 25% | > 300 µM | 160 µM (≈ 51.3 µg/mL) | 1.7 | 136 µL/min/mg | 34 µL/min/mg
3 | O=C1CCN2C(C(=O)Nc3ccccc31)c1ccccc1S2(=O)=O (configuration not stated) | 44% | 80 µM (≈ 27.4 µg/mL) | 27% | 130 µM | 160 µM (≈ 54.8 µg/mL) | 1.7 |  | 
4 | O=C1CCN2C(=O)c3ccccc3C2C(=O)Nc2ccc(F)cc21 (configuration not stated) | 40% | 160 µM (≈ 51.9 µg/mL) | 30% | > 310 µM | > 320 µM | 1.4 | 258 µL/min/mg | 45.4 µL/min/mg
5 | O=C1CCn2c(nc3ccccc3c2=O)C(=O)Nc2ccccc21 | 20% | > 320 µM | 31% | 52 µM | > 320 µM | 1.8 | 38.2 µL/min/mg | 21.7 µL/min/mg
6 | CO/N=C1/CCN2C(=O)c3ccccc3C2C(=O)Nc2ccccc21 (configuration not stated) | 41% | > 320 µM | 33% | > 300 µM | > 320 µM | 1.6 | 80.3 µL/min/mg | 13.2 µL/min/mg
7 | O=C1CCN2C(=O)CCC2C(=O)Nc2ccccc21 (configuration not stated) | 31% | 160 µM (≈ 41.3 µg/mL) | 13% | > 390 µM | > 320 µM | < 0 | 35 µL/min/mg | 17 µL/min/mg
8 | O=C1CCN2C(=O)c3ccccc3C2C(=O)Nc2ccc(Cl)cc21 (configuration not stated) | 40% | 160 µM (≈ 54.5 µg/mL) | 38% | 220 µM | > 320 µM | 1.8 | 413 µL/min/mg | 101 µL/min/mg
9 | O=C1CCN2C(=O)c3cc(Cl)c(Cl)cc3C2C(=O)Nc2ccccc21 (configuration not stated) | 40% | 80 µM (≈ 30 µg/mL) | 31% | 190 µM | 160 µM (≈ 60 µg/mL) | 2.4 |  | 
10 | O=C1c2ccccc2C23C(=O)Nc4ccccc4C2(O)CCN13 (configuration not stated) | 48% | 40 µM (≈ 12.3 µg/mL) | 18% | > 330 µM | 40 µM (≈ 12.3 µg/mL) | 0.9 | < 7 µL/min/mg | < 7 µL/min/mg
11 | O=C1CCN2C(=O)[C@H]3CCCC[C@H]3C2C(=O)Nc2ccccc21 (some centres not stated) | 25% | > 320 µM | 50% | 220 µM | > 320 µM | 1.4 | 43.7 µL/min/mg | 22.3 µL/min/mg
12 | O=C1C[C@@H](CO)N2C(=O)c3ccccc3C2C(=O)Nc2ccccc21 (some centres not stated) | 47% | 80 µM (≈ 26.9 µg/mL) | 38% | 230 µM | 80 µM (≈ 26.9 µg/mL) | 0.8 | 61.6 µL/min/mg | 19.6 µL/min/mg
13 | O=C1CCN2C(=O)c3ccccc3C2C(=O)Nc2cc(F)cc(F)c21 (configuration not stated) | 40% | 160 µM (≈ 54.8 µg/mL) | 23% | 200 µM | > 320 µM | 1.7 | 35.6 µL/min/mg | 21.5 µL/min/mg
14 | COc1ccc2c(c1)C(=O)CCN1C(=O)c3ccccc3C1C(=O)N2 (configuration not stated) | 42% | > 320 µM | 50% | 130 µM | > 320 µM | 1.5 | 280 µL/min/mg | 57.1 µL/min/mg
15 | O=C1CCN2C(=O)c3c(F)c(F)c(F)c(F)c3C2C(=O)Nc2ccccc21 (configuration not stated) | 30% | 160 µM (≈ 60.5 µg/mL) | 36% | 98 µM | 160 µM (≈ 60.5 µg/mL) | 2 |  | 
16 | O=C1Nc2ccccc2C2(O)CCN3C12c1ccccc1S3(=O)=O (configuration not stated) | 61% | 80 µM (≈ 27.4 µg/mL) | 47% | > 290 µM | > 160 µM | 1 | 11.6 µL/min/mg | 4.6 µL/min/mg
17 | COC1CCN2C(=O)c3ccccc3C2C(=O)Nc2ccccc21 (configuration not stated) | 31% | 80 µM (≈ 25.8 µg/mL) | 25% | > 310 µM | 160 µM (≈ 51.6 µg/mL) | 1.4 | 90.5 µL/min/mg | 23.2 µL/min/mg
18 | O=c1c2c([nH]c3ccccc13)C1c3ccccc3S(=O)(=O)N1C2 (configuration not stated) | 47% | 40 µM (≈ 13 µg/mL) | 22% | 200 µM | 40 µM (≈ 13 µg/mL) | 2 | 45.8 µL/min/mg | 11 µL/min/mg
19 | COC(=O)[C@@H]1CC(=O)c2ccccc2NC(=O)C2c3ccccc3C(=O)N21 (some centres not stated) | 27% | 80 µM (≈ 29.1 µg/mL) | 50% | > 270 µM | 160 µM (≈ 58.3 µg/mL) | 1.7 | 102 µL/min/mg | 55.5 µL/min/mg
20 | O=C1CCN2C(=O)c3cc(F)c(F)cc3C2C(=O)Nc2ccccc21 (configuration not stated) | 34% | > 320 µM | 37% | > 290 µM | 160 µM (≈ 54.8 µg/mL) | 1.7 |  | 
21 | CCOC(=O)c1ccc2c(c1)C(=O)CCN1C(=O)c3ccccc3C1C(=O)N2 (configuration not stated) | 38% | 40 µM (≈ 15.1 µg/mL) | 21% | > 260 µM | 40 µM (≈ 15.1 µg/mL) | 2 | 118 µL/min/mg | 55.6 µL/min/mg
22 | COc1cc2c(cc1OC)C1C(=O)Nc3ccccc3C(=O)CCN1C2=O (configuration not stated) | 38% | 160 µM (≈ 58.6 µg/mL) | 23% | 150 µM | > 320 µM | 1.2 | 37.4 µL/min/mg | 20.7 µL/min/mg
23 | CN1C(=O)C2c3ccccc3C(=O)N2CCC(=O)c2ccccc21 (configuration not stated) | 39% | > 320 µM | 23% | > 300 µM | > 320 µM | 1.9 | 174 µL/min/mg | 71 µL/min/mg
24 | O=C1Nc2ccccc2CCCN2C(=O)c3ccccc3C12 (configuration not stated) | 31% | 160 µM (≈ 46.8 µg/mL) | 48% | > 340 µM | > 320 µM | 1.5 | 100 µL/min/mg | 35.7 µL/min/mg
25 | O=C(C1CCCCC1)N1CC(=O)N2CCc3ccccc3C2C1 (configuration not stated) [PRAZIQUANTEL] | 100% | > 320 µM | 78% |  | > 320 µM | 3 |  | 
